Usually IC50 stands for the point on the concentration scale where inhibition reaches its midpoint.

Consider 14 compounds from patent US20120220564A1, “SELECTIVE CALCIUM CHANNEL MODULATORS” (Zalicus Pharmaceuticals Ltd., priority 2009, published 2012).

The assay deals with T1, α1H (CaV 3.2) (Homo sapiens, UniProt O95180).
T1 construct: expressed in transfected cells; host or cells: HEK 293
T1 sequence (O95180 whole entry): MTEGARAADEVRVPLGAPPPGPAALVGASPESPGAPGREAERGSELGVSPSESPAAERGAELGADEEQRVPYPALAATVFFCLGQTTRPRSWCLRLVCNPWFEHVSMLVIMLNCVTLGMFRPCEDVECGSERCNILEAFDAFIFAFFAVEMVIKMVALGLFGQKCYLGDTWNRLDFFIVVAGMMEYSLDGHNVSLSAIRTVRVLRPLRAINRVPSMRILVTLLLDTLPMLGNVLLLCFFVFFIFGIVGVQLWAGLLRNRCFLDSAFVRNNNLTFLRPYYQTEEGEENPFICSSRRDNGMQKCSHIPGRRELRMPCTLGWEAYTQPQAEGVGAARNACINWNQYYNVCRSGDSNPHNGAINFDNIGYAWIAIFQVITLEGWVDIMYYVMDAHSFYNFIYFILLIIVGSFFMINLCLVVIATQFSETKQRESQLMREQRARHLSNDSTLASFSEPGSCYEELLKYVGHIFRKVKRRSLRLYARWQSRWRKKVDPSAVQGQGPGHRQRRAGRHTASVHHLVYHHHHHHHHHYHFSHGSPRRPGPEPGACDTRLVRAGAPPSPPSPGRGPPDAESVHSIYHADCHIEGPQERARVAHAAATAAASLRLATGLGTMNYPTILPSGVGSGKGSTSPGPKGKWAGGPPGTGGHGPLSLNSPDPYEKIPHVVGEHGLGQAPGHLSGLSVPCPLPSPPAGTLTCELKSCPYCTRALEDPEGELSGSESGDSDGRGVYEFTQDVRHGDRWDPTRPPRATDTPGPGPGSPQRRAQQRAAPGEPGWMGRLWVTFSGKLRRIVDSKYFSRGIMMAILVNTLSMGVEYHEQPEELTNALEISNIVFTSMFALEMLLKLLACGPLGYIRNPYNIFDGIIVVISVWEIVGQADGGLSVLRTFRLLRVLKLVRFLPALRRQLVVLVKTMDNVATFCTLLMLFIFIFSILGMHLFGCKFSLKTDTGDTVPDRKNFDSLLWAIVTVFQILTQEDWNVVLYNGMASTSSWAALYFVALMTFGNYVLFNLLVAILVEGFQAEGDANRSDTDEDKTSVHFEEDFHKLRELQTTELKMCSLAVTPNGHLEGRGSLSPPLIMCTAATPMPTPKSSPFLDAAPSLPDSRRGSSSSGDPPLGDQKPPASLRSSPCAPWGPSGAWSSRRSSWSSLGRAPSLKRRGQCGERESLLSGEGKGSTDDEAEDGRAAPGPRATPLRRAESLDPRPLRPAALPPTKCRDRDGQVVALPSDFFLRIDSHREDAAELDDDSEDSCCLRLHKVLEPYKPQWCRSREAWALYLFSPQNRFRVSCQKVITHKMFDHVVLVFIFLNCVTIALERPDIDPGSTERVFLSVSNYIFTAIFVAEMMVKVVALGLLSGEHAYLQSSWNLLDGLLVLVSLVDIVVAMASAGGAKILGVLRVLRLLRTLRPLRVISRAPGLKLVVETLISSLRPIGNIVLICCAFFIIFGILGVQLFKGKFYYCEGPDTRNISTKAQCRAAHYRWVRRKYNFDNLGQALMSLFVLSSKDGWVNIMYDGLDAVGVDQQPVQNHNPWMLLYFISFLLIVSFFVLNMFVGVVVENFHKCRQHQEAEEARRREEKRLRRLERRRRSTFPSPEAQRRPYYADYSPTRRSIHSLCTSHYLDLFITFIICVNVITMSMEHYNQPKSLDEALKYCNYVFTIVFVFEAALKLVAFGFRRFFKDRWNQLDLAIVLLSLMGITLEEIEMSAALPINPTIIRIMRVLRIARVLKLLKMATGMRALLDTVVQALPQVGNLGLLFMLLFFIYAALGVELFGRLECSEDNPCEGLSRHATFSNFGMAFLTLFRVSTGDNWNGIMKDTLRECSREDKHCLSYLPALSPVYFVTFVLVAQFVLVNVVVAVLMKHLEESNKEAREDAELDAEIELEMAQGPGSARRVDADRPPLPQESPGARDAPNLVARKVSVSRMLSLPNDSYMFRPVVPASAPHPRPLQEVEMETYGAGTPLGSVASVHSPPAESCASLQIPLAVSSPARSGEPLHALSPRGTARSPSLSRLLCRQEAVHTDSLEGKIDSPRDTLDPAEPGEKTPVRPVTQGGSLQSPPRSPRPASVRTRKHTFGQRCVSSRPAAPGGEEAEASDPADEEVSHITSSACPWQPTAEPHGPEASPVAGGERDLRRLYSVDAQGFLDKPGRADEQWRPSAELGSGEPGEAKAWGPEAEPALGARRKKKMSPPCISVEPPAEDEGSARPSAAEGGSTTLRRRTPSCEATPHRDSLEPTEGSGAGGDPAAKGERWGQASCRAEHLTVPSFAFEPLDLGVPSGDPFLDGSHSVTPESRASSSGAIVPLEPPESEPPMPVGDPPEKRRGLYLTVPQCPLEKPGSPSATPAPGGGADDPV
Kind of assay: T-type calcium channel block, whole cell patch clamp. The class given is cell-based. The settings on record: HEK cells, mainly non-inactivated protocol; values above 10,000 nM represented as 10000. As to the method: T-type calcium channel blocking activity was assayed in human embryonic kidney cells, HEK 293 (Invitrogen), stably transfected with the T-type calcium channel subunits. Briefly, cells were cultured in Dulbecco's modified eagle medium (DMEM) supplemented with 10% fetal bovine serum, 200 U/ml penicillin, and 0.2 mg/mL streptomycin at 37° C. with 5% CO2. At 85% confluency, cells were split with 0.25% trypsin/1 mM EDTA and plated at 10% confluency on glass coverslips. At 12 hours, the medium was replaced, and the cells stably transfected using a standard calcium phosphate protocol and the appropriate calcium channel cDNA's. Fresh DMEM was supplied, and the cells transferred to 28° C./5% CO2. Cells were incubated for 1 to 2 days prior to whole cell recording.
Standard patch-clamp techniques were employed to identify blockers of T-type currents. Briefly, previously described HEK cell lines stably expressing human α1G, α1H and α1I T-type channels were used for all the recordings (passage #: 4-20, 37° C., 5% CO2). Whole cell patch clamp experiments were performed using an Axopatch 200B amplifier (Axon Instruments, Burlingame, Calif.) linked to a personal computer equipped with pCLAMP software. Data were analyzed using Clampfit (Axon Instruments) and SigmaPlot 4.0 (Jandel Scientific). To obtain T-type currents, plastic dishes containing semi-confluent cells were positioned on the stage of a ZEISS AXIOVERT S100 microscope after replacing the culture medium with external solution (Table 2). Whole-cell patches were obtained using pipettes (borosilicate glass with filament, O.D.: 1.5 mm, I.D.: 0.86 mm, 10 cm length), fabricated on a SUTTER P-97 puller with resistance values of ˜5 MΩ (Table 3).
T-type currents were reliably obtained by using two voltage protocols:
In the non-inactivating protocol, the holding potential is set at −110 mV and with a pre-pulse at −100 mV for 1 second prior to the test pulse at −40 mV for 50 ms. In the inactivation protocol, the pre-pulse is at approximately −85 mV for 1 second, which inactivates about 15% of the T-type channels (Scheme 1).
Test compounds were dissolved in external solution, 0.1-0.01% DMSO. After ˜10 minutes rest, they were applied by gravity close to the cell using a WPI microfil tubing. The “non-inactivated” pre-pulse was used to examine the resting block of a compound. The “inactivated” protocol was employed to study voltage-dependent block. However, the initial data shown below were mainly obtained using the non-inactivated protocol only. IC50 values are shown for various compounds of the invention in Table 4. […] In Table 4, empty cells indicate that inhibition by the compound was not detected.
(In general: Patch clamp records ionic current or voltage across a cell membrane.)
With `N[C@H]1CCCC[C@@H]1C(=O)N1CCC(CC(=O)Nc2ccc(F)cc2)CC1` (racemic) [Compound 11, trans-2-(1-(2-aminocyclohexanecarbonyl)piperidin-4-yl)-N-(4-fluorophenyl)acetamide], the IC50 is more than 10000 nM. Under `N[C@H]1CCCC[C@@H]1C(=O)N1CCC(CC(=O)Nc2cc(F)c(F)cc2F)CC1` (racemic) [Compound 14, trans-2-(1-(2-aminocyclohexanecarbonyl)piperidin-4-yl)-N-(2,4,5-trifluorophenyl)acetamide] stands more than 10000 nM; under `N[C@H]1CCCC[C@@H]1C(=O)N1CCC(CC(=O)Nc2ccc(OC(F)(F)F)cc2)CC1` (racemic) [Compound 18, trans-2-(1-(2-aminocyclohexanecarbonyl)piperidin-4-yl)-N-(4-(trifluoromethoxy)phenyl)acetamide], 2730 nM; under `N[C@H]1CCCC[C@H]1C(=O)N1CCC(CNC(=O)c2cc(C(F)(F)F)cc(C(F)(F)F)c2)CC1` (racemic) [Compound 49], 1930 nM.

In the case of `N[C@@H]1CCCC[C@@H]1C(=O)N1CCC(O)(CC(=O)Nc2cc(C(F)(F)F)cc(C(F)(F)F)c2)CC1` (racemic) [Compound 52, cis-2-(1-(2-aminocyclohexanecarbonyl)-4-hydroxypiperidin-4-yl)-N-(3,5-bis(trifluoromethyl)phenyl)acetamide], the IC50 was determined as 820 nM.

As for `N[C@@H]1CCCC[C@H]1C(=O)N1CCC(CNC(=O)Nc2cc(C(F)(F)F)cc(C(F)(F)F)c2)CC1` (racemic) [Compound 57], the IC50 amounted to 250 nM. Under `N[C@@H]1CCCC[C@@H]1C(=O)N1CCC(CNC(=O)Nc2cc(C(F)(F)F)cc(C(F)(F)F)c2)CC1` (racemic) [Compound 58] stands 250 nM; under `N[C@@H]1CCCC[C@H]1C(=O)N1CCC(NC(=O)Nc2cc(C(F)(F)F)cc(C(F)(F)F)c2)CC1` (racemic) [Compound 62, trans-2-(1-(2-aminocyclohexanecarbonyl)piperidin-4-yl)-3-(3,5-bis(trifiuoromethyl)phenyl)urea], 270 nM. Under `N[C@@H]1CCCC[C@@H]1C(=O)N1CCC(NC(=O)Nc2cc(C(F)(F)F)cc(C(F)(F)F)c2)CC1` (racemic) [Compound 63, cis-2-(1-(2-aminocyclohexanecarbonyl)piperidin-4-yl)-3-(3,5-bis(trifluoromethyl)phenyl)urea] stands 430 nM.

Turning to `N[C@@H]1CCCC[C@H]1C(=O)N1CCC(O)(CC(=O)Nc2cc(C(F)(F)F)cc(C(F)(F)F)c2)CC1` (relative stereo) [Compound 51, trans-2-(1-(2-aminocyclohexanecarbonyl)-4-hydroxypiperidin-4-yl)-N-(3,5-bis(trifluoromethyl)phenyl)acetamide], the IC50 stood at 490 nM. In the case of `O=C(CC1(O)CCN(C(=O)[C@@H]2CCCCN2)CC1)Nc1cc(C(F)(F)F)cc(C(F)(F)F)c1` [Compound 50, (S)-N-(3,5-bis(trifluoromethyl)phenyl)-2-(4-hydroxy-1-(piperidine-2-carbonyl)piperidin-4-yl)acetamide], the IC50 was 520 nM.

Consider `O=C(CC1(O)CCN(C(=O)[C@H]2CCCCN2)CC1)Nc1cc(C(F)(F)F)cc(C(F)(F)F)c1` [Compound 53, (R)-N-(3,5-bis(trifluoromethyl)phenyl)-2-(4-hydroxy-1-(piperidine-2-carbonyl)piperidin-4-yl)acetamide], for which the IC50 is 1860 nM. Under `O=C(Nc1cc(C(F)(F)F)cc(C(F)(F)F)c1)NC1CCN(C(=O)[C@@H]2CCCCN2)CC1` [Compound 60, (S)-1-(3,5-bis(trifluoromethyl)phenyl)-3-(1-(piperidine-2-carbonyl)piperidin-4-yl)urea] stands 950 nM; under `O=C(Nc1cc(C(F)(F)F)cc(C(F)(F)F)c1)NC1CCN(C(=O)[C@H]2CCCCN2)CC1` [Compound 61, (R)-1-(3,5-bis(trifluoromethyl)phenyl)-3-(1-(piperidine-2-carbonyl)piperidin-4-yl)urea], 690 nM.
